Data as given in US20230293644A1, “ANTI-INFLAMMATORY PEPTIDES AND COMPOSITION COMPRISING THE SAME” (Gemvax & KAEL Co., Ltd., priority 2012, published 2023).

Test system: TNF-α
Experiment: Screening of TNF-α inhibitory effect, LPS-stimulated PBMC-derived monocytes (Example 2)
Format: cell-based, human
Details: 4 uM peptide, 2 hrs, LPS 10 ng/ml; for TNF-α inhibiting effect compared to the group treated with LPS and estrogen: estrogen 20 nM
Method: PBMC (peripheral blood mononuclear cells) layer was separated from blood samples (50 ml) collected in healthy subjects using Biocoll Separating Solution (Biochrom AG, Berlin, Germany). The collected PBMC were enriched in RPMI 1640 medium containing 20% human serum for 30 mins, and then transferred to 100-mm polystyeren cell culture plate coated with human serum for incubation for 2 hrs at 37° C., 5% CO^2 incubator. Monocytes were detached from the bottom of the plate using cold PBS, and incubated to reach the number of 1 × 10^5 cell/well in 96-well plate with RPMI 1640 medium (supplemented with penicillinstreptomycin; […], human serum; 20%) over night.
ELISA was performed to find out how the peptides of the PEP RIA series influence TNF-α level. PBMC-derived monocytes were incubated to reach the number of 1 × 10^5 cells per well in a 96-well plate and then treated with LPS (lipopolysaccharide; 10 ng/ml, Sigma) for 2 hours. To the monocytes that were washed three times with PBS, OPTI-MEM culture medium was added to induce cell starvation for an hour, 4 µM of the peptide was taken out and incubated for 2 hours. There were three negative control groups. The first group was not treated with anything. The second group that was treated with estrogen (in this experiment, estradiol was used as a kind of estrogen). The third group was treated with LPS (10 ng/ml) or with LPS (10 ng/ml) as well as estrogen (20 nM). PEP1 that was confirmed to have TNF-α inhibiting activity was used as a positive control to measure TNF-α inhibiting activity. After incubation, TNF-α was measured by following the ELISA kit manual (R&D, Minneapolis, MN, USA). The details of quantification method can be found in Experiment 2.2 of Example 1.
Using the method stated above, Peptides with TNF-α inhibiting effect were screened. PBMC-derived monocytes were stimulated with LPS (10 ng/ml), which is endotoxin, for 2 hours and were induced to starve by adding OPTI-MEM for 1 hour. After that, 4 uM of 179 peptides were treated and incubated for 2 hrs. The amount of TNF-α in the cell culture medium was measured using ELISA, and the peptides with TNF-α inhibiting effect were screened by comparing to the negative and positive controls (FIG. 3 to FIG. 23).

Row | Substance | TNF-α inhibiting effect compared to the control group treated with only LPS | TNF-α inhibiting effect compared to the group treated with LPS and estrogen
1 | HREARPALLTSRLRFIPKPDGLRPI (listed as Homo sapiens) [SEQ ID NO: 63] | showed TNF-α inhibiting effect | showed TNF-α inhibiting effect
2 | IPK [SEQ ID NO: 103] | showed TNF-α inhibiting effect | showed TNF-α inhibiting effect
3 | LLTSR (listed as Homo sapiens) [SEQ ID NO: 150] | showed TNF-α inhibiting effect | 
4 | LLTSRL (listed as Homo sapiens) [SEQ ID NO: 108] | showed TNF-α inhibiting effect | showed TNF-α inhibiting effect
5 | LLTSRLR (listed as Homo sapiens) [SEQ ID NO: 149] | showed TNF-α inhibiting effect | showed TNF-α inhibiting effect
6 | LLTSRLRF (listed as Homo sapiens) [SEQ ID NO: 148] | showed TNF-α inhibiting effect | showed TNF-α inhibiting effect
7 | LRF [SEQ ID NO: 176] | showed TNF-α inhibiting effect | 
8 | LRFI (listed as Homo sapiens) [SEQ ID NO: 175] | showed TNF-α inhibiting effect | 
9 | LRFIP (listed as Homo sapiens) [SEQ ID NO: 174] | showed TNF-α inhibiting effect | showed TNF-α inhibiting effect
10 | LRFIPK (listed as Homo sapiens) [SEQ ID NO: 100] | showed TNF-α inhibiting effect | showed TNF-α inhibiting effect
11 | LSEAEVRQHREARPALLTSRLRFIPK (listed as Homo sapiens) [SEQ ID NO: 11] | showed TNF-α inhibiting effect | showed TNF-α inhibiting effect
12 | LTS [SEQ ID NO: 158] | showed TNF-α inhibiting effect | 
13 | LTSRL (listed as Homo sapiens) [SEQ ID NO: 157] | showed TNF-α inhibiting effect | showed TNF-α inhibiting effect
14 | LTSRLR (listed as Homo sapiens) [SEQ ID NO: 156] | showed TNF-α inhibiting effect | showed TNF-α inhibiting effect
15 | LTSRLRFIPK (listed as Homo sapiens) [SEQ ID NO: 96] | showed TNF-α inhibiting effect | showed TNF-α inhibiting effect
16 | PALLTSRLRFI (listed as Homo sapiens) [SEQ ID NO: 131] | showed TNF-α inhibiting effect | 
17 | QHREARPALLTSRLRFIPKP (listed as Homo sapiens) [SEQ ID NO: 20] | showed TNF-α inhibiting effect | showed TNF-α inhibiting effect
18 | QHREARPALLTSRLRFIPKPD (listed as Homo sapiens) [SEQ ID NO: 21] | showed TNF-α inhibiting effect | 
19 | QHREARPALLTSRLRFIPKPDGLRPI (listed as Homo sapiens) [SEQ ID NO: 62] | showed TNF-α inhibiting effect | showed TNF-α inhibiting effect
20 | REARPALLTSRLRFIPKPD (listed as Homo sapiens) [SEQ ID NO: 19] | showed TNF-α inhibiting effect | showed TNF-α inhibiting effect
21 | REARPALLTSRLRFIPKPDGLRPI (listed as Homo sapiens) [SEQ ID NO: 64] | showed TNF-α inhibiting effect | showed TNF-α inhibiting effect

Row | Substance | TNF-α inhibiting effect compared to the control group treated with only LPS | TNF-α inhibiting effect compared to the group treated with LPS and estrogen
22 | RELSEAEVRQHREARPALLTSRLRFIPK (listed as Homo sapiens) [SEQ ID NO: 13] | showed TNF-α inhibiting effect | 
23 | RFI [SEQ ID NO: 178] | showed TNF-α inhibiting effect | 
24 | RFIP (listed as Homo sapiens) [SEQ ID NO: 177] | showed TNF-α inhibiting effect | 
25 | RFIPK (listed as Homo sapiens) [SEQ ID NO: 101] | showed TNF-α inhibiting effect | showed TNF-α inhibiting effect
26 | RLR [SEQ ID NO: 173] | showed TNF-α inhibiting effect | showed TNF-α inhibiting effect
27 | RLRF (listed as Homo sapiens) [SEQ ID NO: 172] | showed TNF-α inhibiting effect | showed TNF-α inhibiting effect
28 | RLRFIPK (listed as Homo sapiens) [SEQ ID NO: 99] | showed TNF-α inhibiting effect | showed TNF-α inhibiting effect
29 | RPALLTSR (listed as Homo sapiens) [SEQ ID NO: 124] | showed TNF-α inhibiting effect | 
30 | RPALLTSRLRFI (listed as Homo sapiens) [SEQ ID NO: 105] | showed TNF-α inhibiting effect | 
31 | RPALLTSRLRFIPK (listed as Homo sapiens) [SEQ ID NO: 92] | showed TNF-α inhibiting effect | 
32 | RQHREARPALLTSRLRFIPKP (listed as Homo sapiens) [SEQ ID NO: 25] | showed TNF-α inhibiting effect | showed TNF-α inhibiting effect
33 | RQHREARPALLTSRLRFIPKPD (listed as Homo sapiens) [SEQ ID NO: 26] | showed TNF-α inhibiting effect | showed TNF-α inhibiting effect
34 | RQHREARPALLTSRLRFIPKPDG (listed as Homo sapiens) [SEQ ID NO: 27] | showed TNF-α inhibiting effect | showed TNF-α inhibiting effect
35 | RQHREARPALLTSRLRFIPKPDGL (listed as Homo sapiens) [SEQ ID NO: 28] | showed TNF-α inhibiting effect | 
36 | SEAEVRQHREARPALLTSRLRFIPK (listed as Homo sapiens) [SEQ ID NO: 10] | showed TNF-α inhibiting effect | showed TNF-α inhibiting effect
37 | SRLR (listed as Homo sapiens) [SEQ ID NO: 168] | showed TNF-α inhibiting effect | 
38 | SRLRF (listed as Homo sapiens) [SEQ ID NO: 167] | showed TNF-α inhibiting effect | showed TNF-α inhibiting effect
39 | SRLRFI (listed as Homo sapiens) [SEQ ID NO: 166] | showed TNF-α inhibiting effect | showed TNF-α inhibiting effect
40 | SRLRFIP (listed as Homo sapiens) [SEQ ID NO: 165] | showed TNF-α inhibiting effect | showed TNF-α inhibiting effect
41 | SRLRFIPK (listed as Homo sapiens) [SEQ ID NO: 98] | showed TNF-α inhibiting effect | showed TNF-α inhibiting effect
42 | TSR [SEQ ID NO: 164] | showed TNF-α inhibiting effect | showed TNF-α inhibiting effect
